Measured values published in patent US20240059703A1 (AMGEN INC., priority 2021, published 2024).
Where two headings read alike, the source gives them in different places.

Legend:
KRAS G12C = KRAS G12C (Homo sapiens (Human), UniProt P01116, C118A/G12C); experiment: 2 h coupled exchange assay; assay type: biochemical
Experimental: The term “2 h coupled exchange assay” or “20 h coupled exchange assay” as used herein refers to the assay described in the Section entitled “BIOLOGICAL EVALUATION.”

[1] = tested on: MIA PaCa-2 (human pancreatic carcinoma) cells; experiment: Cell Viability Assay (CellTiter-Glo), MIA PaCa-2; assay type: cell-based
Experimental: Serially-diluted compound or DMSO was added to the cells, and plates were incubated at 37° C., 5% CO2 for 72 h. Cell viability was measured using a CellTiter-Glo® Luminescent Cell Viability Assay kit (Promega) according to the manufacturer's protocol. The luminescence signal of treated samples was normalized to DMSO control, and data were analyzed using a 4-parameter logistic model to calculate IC50 values.

[2] = tested on: A549 (human lung carcinoma) cells; experiment: Cell Viability Assay (CellTiter-Glo), A549; assay type: cell-based
In short: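 RPMI 1640/10% FBS; seed 1.67E+04 cells/mL, o/n 37° C., 5% CO2; serial-dilution cmpd 72 h; CellTiter-Glo luminescence vs DMSO; 4-parameter logistic fit → IC50.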

[3] = Avg 2 h Coupled exchange IC50, 2 h compound pre-incubation, SOS-mediated nucleotide exchange
[4] = Avg 2 h Coupled exchange IC50, 2 h compound pre-incubation

Sequence of KRAS G12C (P01116 other isoform, or with tags, fused parts or gaps G12C/C118A): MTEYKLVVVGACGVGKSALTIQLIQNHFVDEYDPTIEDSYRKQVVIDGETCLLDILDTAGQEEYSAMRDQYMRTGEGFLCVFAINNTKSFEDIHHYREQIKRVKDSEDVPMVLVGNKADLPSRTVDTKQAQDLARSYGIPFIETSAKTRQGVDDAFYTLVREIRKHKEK

Row | Compound | IC50 (KRAS G12C; [3]) | IC50 ([1]; Homo sapiens, MIA PaCa-2, 72 h) | IC50 ([2]; Homo sapiens, A549, 72 h) | IC50 (KRAS G12C; [4]) | IC50 (KRAS G12C; read-out: Avg 2 h Coupled exchange IC50, 2 h compound pre-incubation) | IC50 ([1]; 72 h) | IC50 ([2]; 72 h)
1 | C=CC(=O)N1CC2(CCN(c3nc4c(c(-c5ccccc5F)c3C#N)CCN(C(=O)[C@@H]3CCCN3C)C4)C2)C1 [Example 21-34, 4-(2-fluorophenyl)-7-(1-methyl-L-prolyl)-2-(2-(2-propenoyl)-2,6-diazaspiro[3.4]octan-6-yl)-5,6,7,8-tetrahydro-1,7-naphthyridine-3-carbonitrile] | – | 6290 nM | > 25000 nM | 911 nM | – | – | –
2 | C=CC(=O)N1CC2(CCN(c3cc4c(ncn4C)c(-c4c(C)ccc5[nH]ncc45)c3C#N)C2)C1 [Example 7, 1-methyl-4-(5-methyl-1H-indazol-4-yl)-6-(2-(2-propenoyl)-2,6-diazaspiro[3.4]octan-6-yl)-1H-benzimidazole-5-carbonitrile] | 879 nM | 3420 nM | > 5000 nM | – | – | – | –
3 | C=CC(=O)N1CC2(CCN(c3nc4c(c(-c5c(C)ccc6cnn(C)c56)c3C#N)CCC(C)(C)C4)C2)C1 [Example 13-143, 4-(1,6-dimethyl-1H-indazol-7-yl)-7,7-dimethyl-2-(2-(2-propenoyl)-2,6-diazaspiro[3.4]octan-6-yl)-5,6,7,8-tetrahydro-3-quinolinecarbonitrile] | 33 nM | 602 nM | > 5000 nM | – | – | – | –
4 | C=CC(=O)N1CC2(CCN(c3nc4c(c(-c5c(C)ccc6[nH]ncc56)c3C#N)CCC(C)(C)C4)[C@H]2CF)C1 (stereo in doubt) [Example 13-80, (M)-2-((5S)-5-(fluoromethyl)-2-(2-propenoyl)-2,6-diazaspiro[3.4]octan-6-yl)-7,7-dimethyl-4-(5-methyl-1H-indazol-4-yl)-5,6,7,8-tetrahydro-3-quinolinecarbonitrile and (P)-2-((5R)-5-(fluoromethyl)-2-(2-propenoyl)-2,6-diazaspiro[3.4]octan-6-yl)-7,7-dimethyl-4-(5-methyl-1H-indazol-4-yl)-5,6,7,8-tetrahydro-3-quinolinecarbonitrile] | 45 nM | 952 nM | > 5000 nM | – | – | – | –
5 | C=CC(=O)N1CC2(CCN(c3nc4c(c(-c5cc(O)ccc5C)c3F)C[C@H]3C[C@@H]4C3(C)C)C2)C1 (single isomer, unassigned) [Example 14-59] | – | 293 nM | > 5000 nM | 25 nM | – | – | –
6 | C=CC(=O)N1CC2(CCN(c3nc4c(c(-c5cc(O)ccc5Cl)c3C#N)CCN(C[C@@H]3CCCN3C)C4)C2)C1 [Example 21-28, 4-(2-chloro-5-hydroxyphenyl)-7-(((2S)-1-methyl-2-pyrrolidinyl)methyl)-2-(2-(2-propenoyl)-2,6-diazaspiro[3.4]octan-6-yl)-5,6,7,8-tetrahydro-1,7-naphthyridine-3-carbonitrile] | – | 314 nM | > 25000 nM | 473 nM | – | – | –
7 | C=CC(=O)N1CC2(CCN(c3nc4c(c(-c5c(C)ccc6cnn(C)c56)c3C)CCN(C3(C)COC3)C4)C2)C1 (atropisomer, axis not shown; (P)) [Example 36-3, (P)-1-(6-(4-(1,6-dimethyl-1H-indazol-7-yl)-3-methyl-7-(3-methyl-3-oxetanyl)-5,6,7,8-tetrahydro-1,7-naphthyridin-2-yl)-2,6-diazaspiro[3.4]octan-2-yl)-2-propen-1-one] | – | – | – | – | 65300 nM | 11000 nM | 18800 nM
8 | C=CC(=O)N1CC2(CCN(c3nc4cc(OC)ccc4c(-c4c(C)ccc5[nH]ncc45)c3F)C2)C1 [Example 27-1, 1-(6-(3-fluoro-7-methoxy-4-(5-methyl-1H-indazol-4-yl)-2-quinolinyl)-2,6-diazaspiro[3.4]octan-2-yl)-2-propen-1-one] | – | 996 nM | > 5000 nM | 134 nM | – | – | –
9 | C=CC(=O)N1CC2(CCN(c3nc4c(c(-c5ccccc5C)c3C#N)CCC(c3scnc3C)=C4)C2)C1 (single isomer, unassigned) [Example 23-24, (P)-4-(2-methylphenyl)-7-(4-methyl-1,3-thiazol-5-yl)-2-(2-(2-propenoyl)-2,6-diazaspiro[3.4]octan-6-yl)-5,6-dihydro-3-quinolinecarbonitrile] | – | – | – | 71 nM | – | 705 nM | > 5000 nM
10 | C=CC(=O)N1CC2(CCN(c3nc4c(c(-c5c(C)ccc6[nH]ncc56)n3)CCC(C)C4)C2)C1 (stereo not drawn) [Example 1-11, 1-(6-((7)-7-methyl-4-(5-methyl-1H-indazol-4-yl)-5,6,7,8-tetrahydro-2-quinazolinyl)-2,6-diazaspiro[3.4]octan-2-yl)-2-propen-1-one] | 3090 nM | > 5000 nM | > 5000 nM | – | – | – | –

The remaining lines, values ahead:

Row | IC50 (KRAS G12C; [3]) | IC50 ([1]; Homo sapiens, MIA PaCa-2, 72 h) | IC50 ([2]; Homo sapiens, A549, 72 h) | IC50 (KRAS G12C; [4]) | IC50 (KRAS G12C; read-out: Avg 2 h Coupled exchange IC50, 2 h compound pre-incubation) | IC50 ([1]; 72 h) | IC50 ([2]; 72 h) | Compound
11 | 110 nM | 502 nM | > 5000 nM | – | – | – | – | C=CC(=O)N1CC2(CCN(c3nc4c(c(-c5cccc6cc(O)ccc56)c3C#N)COC(C)(C)C4)C2)C1 [Example 12-41, 4-(6-hydroxy-1-naphthalenyl)-7,7-dimethyl-2-(2-(2-propenoyl)-2,6-diazaspiro[3.4]octan-6-yl)-7,8-dihydro-5H-pyrano[4,3-b]pyridine-3-carbonitrile]
12 | 323 nM | 1210 nM | > 5000 nM | – | – | – | – | C=CC(=O)N1CC2(CCN(c3nc4cc(OC)ccc4c(-c4c(C)ccc5cn[nH]c45)c3C)C2)C1 [Example 2-49, 1-(6-(7-methoxy-3-methyl-4-(6-methyl-1H-indazol-7-yl)-2-quinolinyl)-2,6-diazaspiro[3.4]octan-2-yl)-2-propen-1-one]
13 | 250000 nM | 17100 nM | 12100 nM | – | – | – | – | C=CC(=O)N1CC2(CCN(c3nc(-c4ccccc4F)c4ccn(C)c4n3)C2)C1 [Example 1-32]
14 | – | 337 nM | 18400 nM | 334 nM | – | – | – | C=CC(=O)N1CC2(CCN(c3nc4c(c(-c5cc(O)ccc5Cl)c3C#N)C3CCC4N(C(C)C)C3)C2)C1 (stereo not drawn) [Example 21-26]
15 | – | 64 nM | > 5000 nM | 71 nM | – | – | – | C=CC(=O)N1CC2(CCN(c3nc4c(c(-c5cccc6cc(O)ccc56)c3C)CCN(C3COC3)C4)C2)C1 [Example 18-7, 1-(6-(4-(6-hydroxy-1-naphthalenyl)-3-methyl-7-(3-oxetanyl)-5,6,7,8-tetrahydro-1,7-naphthyridin-2-yl)-2,6-diazaspiro[3.4]octan-2-yl)-2-propen-1-one]
16 | – | 1880 nM | 3020 nM | 98 nM | – | – | – | C=CC(=O)N1CC2(C1)CN(c1nc3cc(-c4ccnn4C)ccc3c(-c3ccccc3Cl)c1C#N)CC2(F)F [Example 17-2, 4-(2-chlorophenyl)-2-(8,8-difluoro-2-(2-propenoyl)-2,6-diazaspiro[3.4]octan-6-yl)-7-(1-methyl-1H-pyrazol-5-yl)-3-quinolinecarbonitrile]
17 | 97 nM | 1340 nM | > 5000 nM | – | – | – | – | C=CC(=O)N1CC2(CCN(c3nc4c(c(-c5c(C)ccc6cnn(C)c56)c3C#N)C[C@H]3C[C@@H]4C3(C)C)C2)C1 [Example 13-104, (1R,9R)-6-(1,6-dimethyl-1H-indazol-7-yl)-10,10-dimethyl-4-(2-(2-propenoyl)-2,6-diazaspiro[3.4]octan-6-yl)-3-azatricyclo[7.1.1.0^2,7]undeca-2,4,6-triene-5-carbonitrile]
18 | 299 nM | 1080 nM | > 5000 nM | – | – | – | – | C=CC(=O)N1CC2(CCN(c3nc4c(c(-c5c(C)ccc6cnn(C)c56)c3C#N)CO[C@@H](C3CC3)C4)C2)C1 (single isomer, unassigned) [Example 13-122]
19 | 33 nM | 17 nM | 12200 nM | – | – | – | – | C=CC(=O)N1CC2(CCN(c3nc4c(c(-c5c(C)ccc6[nH]ncc56)c3Cl)COC(C)(C)C4)C2)C1 [Example 2-83, 1-(6-(3-chloro-7,7-dimethyl-4-(5-methyl-1H-indazol-4-yl)-7,8-dihydro-5H-pyrano[4,3-b]pyridin-2-yl)-2,6-diazaspiro[3.4]octan-2-yl)-2-propen-1-one]
20 | 694 nM | 1730 nM | 6250 nM | – | – | – | – | C=CC(=O)N1CC2(CCN(c3nc4ccccc4c(-c4c(C)ccc5cn[nH]c45)c3C#N)C2)C1 [Example 2-2, 4-(6-methyl-1H-indazol-7-yl)-2-(2-(2-propenoyl)-2,6-diazaspiro[3.4]octan-6-yl)-3-quinolinecarbonitrile]
21 | – | 1820 nM | 7580 nM | 431 nM | – | – | – | C=CC(=O)N1CC2(CCN(c3nc4cc(-c5scnc5C)ccc4c(-c4ccccc4OC)c3C#N)C2)C1 [Example 20-17, 4-(2-methoxyphenyl)-7-(4-methyl-1,3-thiazol-5-yl)-2-(2-(2-propenoyl)-2,6-diazaspiro[3.4]octan-6-yl)-3-quinolinecarbonitrile]
22 | – | 335 nM | 12500 nM | 172 nM | – | – | – | C=CC(=O)N1CC2(CCN(c3nc4c(c(-c5ccc(F)cc5F)c3C)CCN(c3scnc3C)C4)C2)C1 [Example 18-12, 1-(6-(4-(2,4-difluorophenyl)-3-methyl-7-(4-methyl-1,3-thiazol-5-yl)-5,6,7,8-tetrahydro-1,7-naphthyridin-2-yl)-2,6-diazaspiro[3.4]octan-2-yl)-2-propane-1-one]
23 | – | – | 5770 nM | 325 nM | – | 2390 nM | – | C=CC(=O)N1CC2(CCN(c3nc4c(c(-c5ccccc5Cl)c3C#N)CCC(c3scnc3C)=C4)C2)C1 (single isomer, unassigned) [Example 23-41, (M)-4-(2-chlorophenyl)-7-(4-methyl-1,3-thiazol-5-yl)-2-(2-(2-propenoyl)-2,6-diazaspiro[3.4]octan-6-yl)-5,6-dihydro-3-quinolinecarbonitrile]
